In this assay the target is IRAK4 (Homo sapiens (Human), UniProt Q9NWZ3). Kind of assay: IRAK4 Inhibition Assay. Particulars: ATP 500 μM; IRAK4 0.6 nM. It is filed as biochemical. The protocol:
The assays were performed in U-bottom 384-well plates. The final assay volume was 30 μL prepared from 15 μL additions of enzyme and substrates (fluoresceinated peptide and ATP) and test compounds in assay buffer (20 mM HEPES pH 7.2, 10 mM MgCl2, 0.015% Brij 35 and 4 mM DTT). The reaction was initiated by the combination of IRAK4 with substrates and test compounds. The reaction mixture was incubated at room temperature for 60 min. and terminated by adding 45 μL of 35 mM EDTA to each sample. The reaction mixture was analyzed on the Caliper LABCHIP® 3000 (Caliper, Hopkinton, Mass.) by electrophoretic separation of the fluorescent substrate and phosphorylated product. Inhibition data were calculated by comparison to no enzyme control reactions for 100% inhibition and vehicle-only reactions for 0% inhibition. The final concentrations of reagents in the assays are ATP, 500 μM; FL-IPTSPITTTYFFFKKK peptide 1.5 μM; IRAK4, 0.6 nM; and DMSO, 1.6%.

Each structure is given as a SMILES string.

Chain of IRAK4 (Q9NWZ3 whole entry, species assumed): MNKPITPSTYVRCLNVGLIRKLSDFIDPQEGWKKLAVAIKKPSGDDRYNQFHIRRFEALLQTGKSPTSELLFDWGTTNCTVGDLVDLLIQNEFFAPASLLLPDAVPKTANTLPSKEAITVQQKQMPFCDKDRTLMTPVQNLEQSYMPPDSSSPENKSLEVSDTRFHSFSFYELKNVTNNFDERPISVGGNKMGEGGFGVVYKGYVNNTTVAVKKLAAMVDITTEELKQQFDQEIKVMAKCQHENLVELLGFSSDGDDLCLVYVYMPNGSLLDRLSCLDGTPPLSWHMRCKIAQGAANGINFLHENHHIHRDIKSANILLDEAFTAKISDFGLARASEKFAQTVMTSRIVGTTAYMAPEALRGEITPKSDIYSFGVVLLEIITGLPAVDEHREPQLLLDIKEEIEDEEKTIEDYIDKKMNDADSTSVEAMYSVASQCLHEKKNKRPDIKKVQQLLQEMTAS

For the compound `CC(O)Cc1cn(-c2cnc(-n3ncc4cc(C#N)cnc43)cc2NC2CC2)nn1` (single isomer, unassigned) [Example 275, 1-(4-(cyclopropylamino)-5-(4-(2-hydroxypropyl)-1H-1,2,3-triazol-1-yl)pyridin-2-yl)-1H-pyrazolo[3,4-b]pyridine-5-carbonitrile], the IC50 came out at 30 nM.

Regarding `CC(C)Nc1cc(-n2ncc3cc(C#N)cnc32)ncc1-c1cn(Cc2ccccc2)nn1` [Example 107, 1-(5-(1-benzyl-1H-1,2,3-triazol-4-yl)-4-(isopropylamino)pyridin-2-yl)-1H-pyrazolo[3,4-b]pyridine-5-carbonitrile], the IC50 was 15 nM. In the case of `CC(C)Nc1cc(-n2ncc3cc(C#N)cnc32)ncc1-c1cn(CC(O)Cc2ccccc2)nn1` (single isomer, unassigned) [Example 76, 1-(5-(1-(2-hydroxy-3-phenylpropyl)-1H-1,2,3-triazol-4-yl)-4-(isopropylamino)pyridin-2-yl)-1H-pyrazolo [3,4-b]pyridine-5-carbonitrile] it was 7 nM; in that of `CC(C)Nc1cc(-n2ncc3cc(C#N)cnc32)ncc1-c1cn(Cc2ccccn2)cn1` [Example 239, 1-(4-(isopropylamino)-5-(1-(pyridin-2-ylmethyl)-1H-imidazol-4-yl)pyridin-2-yl)-1H-pyrazolo[3,4-b]pyridine-5-carbonitrile], 34 nM. Under `CC(C)Nc1cc(-n2ncc3cc(C#N)cnc32)ncc1-c1cn(-c2cccnc2)cn1` [Example 224, 1-(4-(isopropylamino)-5-(1-(pyridin-3-yl)-1H-imidazol-4-yl)pyridin-2-yl)-1H-pyrazolo[3,4-b]pyridine-5-carbonitrile] stands 87 nM; under `COC(=O)N1CC[C@@H](n2cc(-c3cnc(-n4ncc5cc(C#N)cnc54)cc3NC(C)C)nn2)[C@H](O)C1` (single isomer, unassigned) [Example 205], 5 nM. In the case of `CC(C)Nc1cc(-n2ncc3cc(Cl)cnc32)ncc1-c1cn(C)nn1` [Example 165, 2-(5-chloro-1H-pyrazolo[3,4-b]pyridin-1-yl)-N-isopropyl-5-(1-methyl-1H-1,2,3-triazol-4-yl)pyridin-4-amine] it was 25 nM.

As to `CC(C)Nc1cc(-n2cnc3cc(C#N)cnc32)ncc1-c1cn(CC(O)Cc2ccccc2)nn1` (single isomer, unassigned) [Example 78, 3-(5-(1-(2-hydroxy-3-phenylpropyl)-1H-1,2,3-triazol-4-yl)-4-(isopropylamino)pyridin-2-yl)-3H-imidazo[4,5-b]pyridine-6-carbonitrile], the IC50 was determined as 43 nM. Under `CC(C)Nc1cc(-n2ncc3cc(C#N)cnc32)ncc1-c1cn(CC(O)Cc2ccccc2)nn1` (single isomer, unassigned) [Example 77, 1-(5-(1-(2-hydroxy-3-phenylpropyl)-1H-1,2,3-triazol-4-yl)-4-(isopropylamino)pyridin-2-yl)-1H-pyrazolo [3,4-b]pyridine-5-carbonitrile] stands 21 nM. Under `CCCn1cc(-c2cnc(-n3cnc4cc(C#N)cnc43)cc2NCC)nn1` [Example 55, 3-(4-(ethylamino)-5-(1-propyl-1H-1,2,3-triazol-4-yl)pyridin-2-yl)-3H-imidazo[4,5-b]pyridine-6-carbonitrile] stands 8 nM; under `CC(C)Nc1cc(-n2ncc3cc(C(N)=O)cnc32)ncc1-c1cn([C@@H]2CCNC[C@@H]2O)nn1` [Example 187, 1-(5-(1-((3S,4R)-3-hydroxypiperidin-4-yl)-1H-1,2,3-triazol-4-yl)-4-(isopropylamino)pyridin-2-yl)-1H-pyrazolo[3,4-b]pyridine-5-carboxamide], 302 nM; under `CC(C)Nc1cc(-n2ncc3cc(C#N)cnc32)ncc1-c1cn(C[C@@H](N)Cc2ccccc2)nn1` [Example 168, (S)-1-(5-(1-(2-amino-3-phenylpropyl)-1H-1,2,3-triazol-4-yl)-4-(isopropylamino)pyridin-2-yl)-1H-pyrazolo[3,4-b]pyridine-5-carbonitrile], 24 nM. Under `CCNc1cc(-n2ncc3cc(C#N)cnc32)ncc1-c1cn(C[C@H](C)O)nn1` [Example 71, (S)-1-(4-(ethylamino)-5-(1-(2-hydroxypropyl)-1H-1,2,3-triazol-4-yl)pyridin-2-yl)-1H-pyrazolo[3,4-b]pyridine-5-carbonitrile] stands 40 nM; under `CC(C)Nc1cc(-n2ncc3cc(C#N)cnc32)ncc1-c1cnn(CC2COC2)c1` [Example 254, 1-(4-(isopropylamino)-5-(1-(oxetan-3-ylmethyl)-1H-pyrazol-4-yl)pyridin-2-yl)-1H-pyrazolo[3,4-b]pyridine-5-carbonitrile], 190 nM; under `CC(C)Nc1cc(-n2ncc3cc(C#N)cnc32)ncc1-c1cnn(CCO)c1` [Example 252, 1-(5-(1-(2-hydroxyethyl)-1H-pyrazol-4-yl)-4-(isopropylamino)pyridin-2-yl)-1H-pyrazolo[3,4-b]pyridine-5-carbonitrile], 119 nM. On to `CC(C)Nc1cc(-n2cnc3cc(C#N)cnc32)ncc1-c1cn(C2CCOCC2)nn1` [Example 24, 3-(4-(isopropylamino)-5-(1-(tetrahydro-2H-pyran-4-yl)-1H-1,2,3-triazol-4-yl)pyridin-2-yl)-3H-imidazo[4,5-b]pyridine-6-carbonitrile], for which the IC50 came out at 3 nM. Under `COc1ccc(OCC(O)Cn2cc(-c3cnc(-n4ncc5cc(C#N)cnc54)cc3NC(C)C)nn2)cc1` (centres unmarked) [Example 136, 1-(5-(1-(2-hydroxy-3-(4-methoxyphenoxy)propyl)-1H-1,2,3-triazol-4-yl)-4-(isopropylamino)pyridin-2-yl)-1H-pyrazolo[3,4-b]pyridine-5-carbonitrile] stands 27 nM; under `CC(C)Nc1cc(-n2ncc3cc(C#N)cnc32)ncc1-c1cn(-c2ccccc2C#N)nn1` [Example 173, 1-(5-(1-(2-cyanophenyl)-1H-1,2,3-triazol-4-yl)-4-(isopropylamino)pyridin-2-yl)-1H-pyrazolo [3,4-b]pyridine-5-carbonitrile], 26 nM; under `CC(C)Nc1cc(-n2ncc3cc(C#N)cnc32)ncc1-n1cc(CF)nn1` [Example 329, 1-(5-(4-(fluoromethyl)-1H-1,2,3-triazol-1-yl)-4-(isopropylamino)pyridin-2-yl)-1H-pyrazolo[3,4-b]pyridine-5-carbonitrile], 34 nM. In the case of `CC(C)Nc1cc(-n2ncc3cc(C#N)cnc32)ncc1-n1cc(Cc2ccccc2)cn1` [Example 243, 1-(5-(4-benzyl-1H-pyrazol-1-yl)-4-(isopropylamino)pyridin-2-yl)-1H-pyrazolo[3,4-b]pyridine-5-carbonitrile] it was 62 nM. Under `CC(C)Nc1cc(-n2cnc3cc(C#N)cnc32)ncc1-c1cn(CCCF)nn1` [Example 45, 3-(5-(1-(3-fluoropropyl)-1H-1,2,3-triazol-4-yl)-4-(isopropylamino)pyridin-2-yl)-3H-imidazo[4,5-b]pyridine-6-carbonitrile] stands 8 nM. `CC(C)Nc1cc(-n2ncc3cc(C#N)cnc32)ncc1-c1cn(-c2ccccc2)nn1` [Example 115, 1-(4-(isopropylamino)-5-(1-phenyl-1H-1,2,3-triazol-4-yl)pyridin-2-yl)-1H-pyrazolo[3,4-b]pyridine-5-carbonitrile]: the IC50 was determined as 33 nM. Under `CCCn1cc(-c2cnc(-n3cnc4cc(C#N)cnc43)cc2Nc2cnn(CC(F)F)c2)nn1` [Example 61, 3-(4-((1-(2,2-difluoroethyl)-1H-pyrazol-4-yl)amino)-5-(1-propyl-1H-1,2,3-triazol-4-yl)pyridin-2-yl)-3H-imidazo[4,5-b]pyridine-6-carbonitrile] stands 7 nM; under `CCCn1cc(-c2cnc(-n3ncc4cc(C#N)cnc43)cc2Nc2cnn(CC)c2)nn1` [Example 58, 1-(4-((1-ethyl-1H-pyrazol-4-yl)amino)-5-(1-propyl-1H-1,2,3-triazol-4-yl)pyridin-2-yl)-1H-pyrazolo [3,4-b]pyridine-5-carbonitrile], 93 nM. `COc1ccc(Cn2cc(-c3cnc(-n4ncc5cc(C#N)cnc54)cc3NC(C)C)nn2)cc1` [Example 110, 1-(4-(isopropylamino)-5-(1-(4-methoxybenzyl)-1H-1,2,3-triazol-4-yl)pyridin-2-yl)-1H-pyrazolo[3,4-b]pyridine-5-carbonitrile]: the IC50 worked out at 75 nM.

In the case of `CC(C)Nc1cc(-n2cnc3cc(C#N)cnc32)ncc1-c1cn(C[C@@H](C)O)nn1` [Example 68, (R)-3-(5-(1-(2-hydroxypropyl)-1H-1,2,3-triazol-4-yl)-4-(isopropylamino)pyridin-2-yl)-3H-imidazo[4,5-b]pyridine-6-carbonitrile], the half-maximal inhibitory concentration (IC50) came to 14 nM. In the case of `CC(C)Nc1cc(-n2ncc3cc(C#N)cnc32)ncc1-n1cc(CCN)nn1` [Example 328, 1-(5-(4-(2-aminoethyl)-1H-1,2,3-triazol-1-yl)-4-(isopropylamino)pyridin-2-yl)-1H-pyrazolo[3,4-b]pyridine-5-carbonitrile] it was 26 nM. For the compound `CC(C)Nc1cc(-n2ncc3cc(C#N)cnc32)ncc1-c1cn([C@@H]2CCN(C(=O)C(C)(C)C)C[C@H]2O)nn1` (single isomer, unassigned) [Example 200], the half-inhibitory concentration (IC50) was 5 nM.

For `CC(C)Nc1cc(-n2ncc3cc(C#N)cnc32)ncc1-n1cc(CN2CCOCC2)nn1` [Example 301, 1-(4-(isopropylamino)-5-(4-(morpholinomethyl)-1H-1,2,3-triazol-1-yl)pyridin-2-yl)-1H-pyrazolo[3,4-b]pyridine-5-carbonitrile], the IC50 stood at 22 nM.

The record behind these values is US10294229B2, “Heteroaryl substituted aminopyridine compounds” (BRISTOL-MYERS SQUIBB COMPANY, priority 2015, dated 2019).
